Experimental data reported in PubChem BioAssay AID1963428 (Molecular Pharmacology Branch, DTP, NCI, 2024).
“And” between values parts separate entries of the source, which are not always exact repeats. Identical values can stand only once.

Tested on: 171881-019-R-J1-PDC complex spheroid growth, % test/control
Test: Anticancer human tumor 171881-019-R-J1-PDC patient-derived invasive breast carcinoma cell line growth inhibition [Asc]
Conditions: for viability, T/C: stronger effect = lower value; active means viability on the fitted dose curve at most 10% of control; inactive means the rest
Method in brief: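 Complex spheroids combining tumor cells with HUVEC endothelial cells and human MSCs, at 37 degrees C, 5% CO2; agents tested alone or combined, half-log dilutions from at or near clinical Cmax, or 10 microM if Cmax unknown.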

[1] = curve of first compound, second compound 0.1 µM
[2] = curve of first compound, second compound 0.316 µM
[3] = curve of first compound, second compound 1 µM
[4] = second compound 0.1 µM, first compound 0.00316 µM
[5] = second compound 0.1 µM, first compound 0.01 µM
[6] = second compound 0.1 µM, first compound 0.0316 µM
[7] = second compound 0.1 µM, first compound 0.1 µM
[8] = second compound 0.1 µM, first compound 0.316 µM
[9] = second compound 0.1 µM, first compound 1 µM
[10] = second compound 0.316 µM, first compound 0.00316 µM
[11] = second compound 0.316 µM, first compound 0.01 µM
[12] = second compound 0.316 µM, first compound 0.0316 µM
[13] = second compound 0.316 µM, first compound 0.1 µM
[14] = second compound 0.316 µM, first compound 0.316 µM
[15] = second compound 0.316 µM, first compound 1 µM
[16] = second compound 1 µM, first compound 0.00316 µM
[17] = second compound 1 µM, first compound 0.01 µM
[18] = second compound 1 µM, first compound 0.0316 µM
[19] = second compound 1 µM, first compound 0.1 µM
[20] = second compound 1 µM, first compound 0.316 µM
[21] = second compound 1 µM, first compound 1 µM
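Wherever viability, T/C is given: spheroids exposed to compounds for 7 days.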

CCN1CCN(Cc2ccc(Nc3ncc(F)c(-c4cc(F)c5nc(C)n(C(C)C)c5c4)n3)nc2)CC1 + Cc1c(S(C)(=O)=O)c(-c2cc(F)cc(N3CCN(c4ccc(NS(=O)(=O)c5ccc(NC(CCN6CCC(C(=O)OCCCP(=O)(O)O)CC6)CSc6ccccc6)c(S(=O)(=O)C(F)(F)F)c5)cc4)CC3)c2)c(-c2ccc(Cl)cc2)n1C(C)C
inactive: viability, T/C [4] 105% | viability, T/C [5] 118% | viability, T/C [6] 119% | viability, T/C [7] 111% | viability, T/C [8] 118% | viability, T/C [9] 146% | viability, T/C [10] 142% | viability, T/C [11] 145% | viability, T/C [12] 149% | viability, T/C [13] 139% | viability, T/C [14] 178% | viability, T/C [15] 188% | viability, T/C [16] 125% | viability, T/C [17] 149% | viability, T/C [18] 157% | viability, T/C [19] 172% | viability, T/C [20] 188% | viability, T/C [21] 200% | viability, T/C (second compound 3.16 µM, first compound 0.00316 µM) 191% | viability, T/C (second compound 3.16 µM, first compound 0.01 µM) 190% | viability, T/C (second compound 3.16 µM, first compound 0.0316 µM) 189% | viability, T/C (second compound 3.16 µM, first compound 0.1 µM) 184% | viability, T/C (second compound 3.16 µM, first compound 0.316 µM) 188% | viability, T/C (second compound 3.16 µM, first compound 1 µM) 185% | viability, T/C (second compound 10 µM, first compound 0.00316 µM) 199% | viability, T/C (second compound 10 µM, first compound 0.01 µM) 215% | viability, T/C (second compound 10 µM, first compound 0.0316 µM) 213% | viability, T/C (second compound 10 µM, first compound 0.1 µM) 192% | viability, T/C (second compound 10 µM, first compound 0.316 µM) 187% | viability, T/C (second compound 10 µM, first compound 1 µM) 166%
> 1000 nM: IC50 [1] | IC50 [2] | IC50 [3] | IC50 (curve of first compound, second compound 3.16 µM) | IC50 (curve of first compound, second compound 10 µM)

CCN1CCN(Cc2ccc(Nc3ncc(F)c(-c4cc(F)c5nc(C)n(C(C)C)c5c4)n3)nc2)CC1 + CNC(C)C(=O)NC1CN(S(=O)(=O)c2cccc(S(=O)(=O)N3CCC4CCC(C(=O)NC(c5ccccc5)c5ccccc5)N4C(=O)C(NC(=O)C(C)NC)C3)c2)CCC2CCC(C(=O)NC(c3ccccc3)c3ccccc3)N2C1=O
inactive: viability, T/C (second compound 0.01 µM, first compound 0.00316 µM) 94.1% | viability, T/C (second compound 0.01 µM, first compound 0.01 µM) 102% | viability, T/C (second compound 0.01 µM, first compound 0.0316 µM) 102% | viability, T/C (second compound 0.01 µM, first compound 0.1 µM) 113% | viability, T/C (second compound 0.01 µM, first compound 0.316 µM) 131% | viability, T/C (second compound 0.01 µM, first compound 1 µM) 147% | viability, T/C (second compound 0.0316 µM, first compound 0.00316 µM) 89.7% | viability, T/C (second compound 0.0316 µM, first compound 0.01 µM) 97.9% | viability, T/C (second compound 0.0316 µM, first compound 0.0316 µM) 112% | viability, T/C (second compound 0.0316 µM, first compound 0.1 µM) 124% | viability, T/C (second compound 0.0316 µM, first compound 0.316 µM) 149% | viability, T/C (second compound 0.0316 µM, first compound 1 µM) 143% | viability, T/C [4] 112% | viability, T/C [5] 107% | viability, T/C [6] 117% | viability, T/C [7] 128% | viability, T/C [8] 143% | viability, T/C [9] 174% | viability, T/C [10] 101% | viability, T/C [11] 110% | viability, T/C [12] 121% | viability, T/C [13] 130% | viability, T/C [14] 142% | viability, T/C [15] 143% | viability, T/C [16] 89.7% | viability, T/C [17] 110% | viability, T/C [18] 117% | viability, T/C [19] 139% | viability, T/C [20] 131% | viability, T/C [21] 146%
> 1000 nM: IC50 (curve of first compound, second compound 0.01 µM) | IC50 (curve of first compound, second compound 0.0316 µM) | IC50 [1] | IC50 [2] | IC50 [3]

O=C(c1ccc(F)c(F)c1Nc1ccc(I)cc1F)N1CC(O)([C@@H]2CCCCN2)C1
545 nM and 344 nM and > 1000 nM: IC50 (curve of compound)
inactive: viability, T/C (compound 0.00316 µM) 86.7% and 86.1% and 88.1% | viability, T/C (compound 0.01 µM) 104% and 85.4% and 111% | viability, T/C (compound 0.0316 µM) 121% and 111% and 153% | viability, T/C (compound 0.1 µM) 150% and 136% and 218% | viability, T/C (compound 0.316 µM) 65.5% and 51.4% and 121% | viability, T/C (compound 1 µM) 32.6% and 32.5% and 58.2%

NC(=O)C(=Cn1cnc(-c2cc(C(F)(F)F)cc(C(F)(F)F)c2)n1)c1cncnc1 + CCN1C(C(=O)NC23CCC(C(=O)O)(CC2)CC3)C(c2cccc(Cl)c2F)C2(C(=O)Nc3cc(Cl)ccc32)C12CCCCC2
active: viability, T/C (second compound 0.03 µM, first compound 0.3 µM) 3.28% | viability, T/C (second compound 0.0949 µM, first compound 0.3 µM) 3.82% | viability, T/C (second compound 0.3 µM, first compound 0.3 µM) 2.76% | viability, T/C (second compound 0.949 µM, first compound 0.0949 µM) 8.13% | viability, T/C (second compound 0.949 µM, first compound 0.3 µM) 0.97% | viability, T/C (second compound 3 µM, first compound 0.0949 µM) 6.01% | viability, T/C (second compound 3 µM, first compound 0.3 µM) 1.16%
38.1 nM: IC50 (curve of first compound, second compound 0.949 µM)
29.3 nM: IC50 (curve of first compound, second compound 3 µM)
29.2 nM: IC50 (curve of first compound, second compound 0.0949 µM)
inactive: viability, T/C (second compound 0.03 µM, first compound 0.000949 µM) 116% | viability, T/C (second compound 0.03 µM, first compound 0.003 µM) 103% | viability, T/C (second compound 0.03 µM, first compound 0.00949 µM) 93.8% | viability, T/C (second compound 0.03 µM, first compound 0.03 µM) 57.9% | viability, T/C (second compound 0.03 µM, first compound 0.0949 µM) 9.64% | viability, T/C (second compound 0.0949 µM, first compound 0.000949 µM) 139% | viability, T/C (second compound 0.0949 µM, first compound 0.003 µM) 101% | viability, T/C (second compound 0.0949 µM, first compound 0.00949 µM) 100% | viability, T/C (second compound 0.0949 µM, first compound 0.03 µM) 48.6% | viability, T/C (second compound 0.0949 µM, first compound 0.0949 µM) 10.1% | viability, T/C (second compound 0.3 µM, first compound 0.000949 µM) 121% | viability, T/C (second compound 0.3 µM, first compound 0.003 µM) 118% | viability, T/C (second compound 0.3 µM, first compound 0.00949 µM) 108% | viability, T/C (second compound 0.3 µM, first compound 0.03 µM) 60.3% | viability, T/C (second compound 0.3 µM, first compound 0.0949 µM) 8.36% | viability, T/C (second compound 0.949 µM, first compound 0.000949 µM) 126% | viability, T/C (second compound 0.949 µM, first compound 0.003 µM) 115% | viability, T/C (second compound 0.949 µM, first compound 0.00949 µM) 114% | viability, T/C (second compound 0.949 µM, first compound 0.03 µM) 61% | viability, T/C (second compound 3 µM, first compound 0.000949 µM) 111% | viability, T/C (second compound 3 µM, first compound 0.003 µM) 117% | viability, T/C (second compound 3 µM, first compound 0.00949 µM) 105% | viability, T/C (second compound 3 µM, first compound 0.03 µM) 48.8%
34.5 nM: IC50 (curve of first compound, second compound 0.03 µM)
37.4 nM: IC50 (curve of first compound, second compound 0.3 µM)
